Measurements from ChEMBL document CHEMBL4041536, “Design, synthesis and biological activity of novel molecules designed to target PARP and DNA” (Bioorg Med Chem Lett, 2017).
Each block holds one compound with its values, some of them ahead of it. Calls of active or inactive are those of the source. The calls are words filed in the database; no cut-off is given here.

Assays:
Cricetulus griseus [1] = organism: Cricetulus griseus; assay: Induction of DNA damage in chinese hamster VC8 cells harboring BRCA2 mutant by comet assay; type: cell-based
[2] = (§1) Inhibition of PARP in chinese hamster VC8 cells harboring BRCA2 mutant; type: cell-based, Cricetulus griseus
[3] = Inhibition of PARP (unknown origin); design: species or system Homo sapiens
Cricetulus griseus [4] = organism: Cricetulus griseus; assay: Selectivity ratio of PARP inhibition in chinese hamster VC8 cells harboring wild type BRCA2 to PARP inhibition in chinese hamster VC8 cells harboring BRCA2 mutant; type: cell-based
Cricetulus griseus [5] = organism: Cricetulus griseus; assay: Inhibition of PARP in chinese hamster VC8 cells harboring BRCA2 mutant assessed as growth inhibition; type: cell-based
[6] = Inhibition of PARP in Wistar rat pancreatic islet nuclear fraction using histone H1 as substrate in presence of [14C]NAD after 10 mins by scintillation counting method
[7] = Drug uptake in nucleus of chinese hamster VC8 cells harboring BRCA2 mutant at 25 uM by DAPI staining based fluorescence microscopic method; type: ADME, Cricetulus griseus
Cricetulus griseus [8] = organism: Cricetulus griseus; assay: as §1; type: cell-based
[9] = Drug uptake in nucleus of chinese hamster VC8 cells harboring wild type BRCA2 at 25 uM by DAPI staining based fluorescence microscopic method; type: ADME, Cricetulus griseus

Structure (SMILES): ClCCN1CC[N+](c2ccc3ncnc(Nc4cccc(Cl)c4)c3c2)=N1
Activity (Cricetulus griseus [1]): Active
IC50 [2]: 15.2 µM

Structure (SMILES): O=c1[nH]ccc2c([N+]3=NN(CCCl)CC3)cccc12
IC50 [2]: 23.9 µM

IC50 [3]: 5 to 120 µM
Structure (SMILES): Cc1nc2ccccc2c(=O)[nH]1

Structure (SMILES): CN/N=N/c1ccc2c3c(cccc13)C(=O)NC2=O
Selectivity ratio (Cricetulus griseus [4]): 2 to 7
inhibition (Cricetulus griseus [5]): inactive

Structure (SMILES): CN(CO)/N=N/c1cccc2c(=O)[nH]ccc12
Selectivity ratio (Cricetulus griseus [4]): 2 to 7
inhibition (Cricetulus griseus [5]): inactive

Structure (SMILES): CN(C)/N=N/c1cccc2c(=O)[nH]ccc12
Selectivity ratio (Cricetulus griseus [4]): 2 to 7
inhibition (Cricetulus griseus [5]): inactive

Structure (SMILES): Nc1cccc2c(=O)[nH]ccc12
inhibition (Cricetulus griseus [5]): inactive

Structure (SMILES): CN(CO)/N=N/c1ccc2c3c(cccc13)C(=O)NC2=O
Selectivity ratio (Cricetulus griseus [4]): 2 to 7
inhibition (Cricetulus griseus [5]): inactive

Structure (SMILES): CN/N=N/c1cccc2c(=O)[nH]ccc12
Selectivity ratio (Cricetulus griseus [4]): 2 to 7
inhibition (Cricetulus griseus [5]): inactive

Structure (SMILES): O=C1NC(=O)c2ccc(/N=N/N(CCCl)CCCl)c3cccc1c23
inhibition (Cricetulus griseus [5]): inactive

Structure (SMILES): Nc1ccc2c3c(cccc13)C(=O)NC2=O
Selectivity ratio (Cricetulus griseus [4]): 77
IC50 [2]: 2.59 µM

IC50 [6]: 5 to 120 µM
Structure (SMILES): NC(=O)c1cccc(N)c1 [3-AMINOBENZAMIDE]

Structure (SMILES): O=C1NC(=O)c2ccc([N+]3=NN(CCCl)CC3)c3cccc1c23.[Cl-]
Drug uptake [7]: Not Active
Activity (Cricetulus griseus [1]): Active
Selectivity ratio (Cricetulus griseus [4]): 25
IC50 [2]: 1 to 1.7 µM
inhibition (Cricetulus griseus [8]): Dose-dependent effect
Drug uptake [9]: Not Active

Structure (SMILES): CN(C)/N=N/c1ccc2c3c(cccc13)C(=O)NC2=O
Selectivity ratio (Cricetulus griseus [4]): 2 to 7
inhibition (Cricetulus griseus [5]): inactive
